How the values were obtained:
[1] = In vitro microsomal stability, dog; assay type: in vitro ADME; details: Dog (Beagle), Male
Procedure: (§1) In vitro metabolic stability studies were performed to determine hepatic stability in vivo. CFMQ was incubated in liver microsomal preparations from mouse, rat, dog, mini-pig, and humans, as well as an additional study with monkey and human. CFMQ was incubated with human and animal liver microsomes at 0.3 mg/mL at 37° C. for 30 or 60 minutes. Additional reference compounds were incubated as controls. Following incubation, samples were analyzed by HPLC-MS/MS.

[2] = Extrapolation of human oral dose by allometric scaling and pharmacokinetic simulation; details: human equivalent dose of 0.8 mg/kg
Procedure: A pharmacokinetic extrapolation for a human oral dose was performed using allometric scaling of clearance and volume of distribution. The human pharmacokinetic values were extrapolated from in vivo mouse, rat, dog and monkey pharmacokinetic studies. […] This model was based on the assumption that all of the clearance pathways in the human were captured in the pre-clinical species.

[3] = biological target: T1, human B2-bradykinin receptor (Homo sapiens, UniProt P30411); experiment: [3H]bradykinin competition binding assay in HEK 293 cells; design: expressed in transfected cells; details: 2 nM [3H]bradykinin, 90-minute incubation
T1 sequence (P30411 1-391): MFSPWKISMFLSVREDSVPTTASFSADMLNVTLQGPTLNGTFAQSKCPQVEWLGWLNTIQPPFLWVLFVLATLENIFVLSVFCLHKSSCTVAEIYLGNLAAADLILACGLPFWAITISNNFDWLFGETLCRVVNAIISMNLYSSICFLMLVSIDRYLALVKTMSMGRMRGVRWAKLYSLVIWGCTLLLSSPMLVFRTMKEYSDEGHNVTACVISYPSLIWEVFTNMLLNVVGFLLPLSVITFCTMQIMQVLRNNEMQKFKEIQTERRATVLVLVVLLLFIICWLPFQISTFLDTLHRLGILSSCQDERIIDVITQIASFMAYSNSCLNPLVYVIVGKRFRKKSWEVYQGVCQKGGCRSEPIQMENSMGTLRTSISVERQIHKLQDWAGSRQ
Procedure: For determination of non-specific binding 1.25 μL of a 10 mM bradykinin (BK) solution was added to 248.8 μL incubation buffer (containing 2 nM [^3H]BK). […] Appropriate controls were prepared in the same method.
Human embryonic kidney (HEK) 293 cells stably express recombinant human B2-bradykinin receptors (10 pmol/mg protein) and were added to 96-well culture-trays and cultivated for 1-3 days, followed by incubation with 100 μL of each of the incubation buffers containing [^3H]BK. After a 90-minute incubation period and washing (4×PBS (phosphate buffered saline)) supernatants of the cell mixtures were transferred to scintillation vials and assayed for [^3H]BK in a beta-counter. Results of counts per minute (cpm) for non-specific binding were subtracted from the total cpm and were used for curve fit and IC50 calculation.

[4] = test system: plasma extravasation; experiment: Plasma extravasation (Evans blue in bladder), oral, C1-INH knockout mice; assay type: in vivo, C1-INH-KO mice
[5] = biological target: T2, μ (h) (MOP) (agonist site) (Homo sapiens, UniProt P35372); experiment: Off-target receptor binding: μ (MOP)
T2 construct: expressed in transfected cells; host or cells: CHO or HEK 293 (not assigned per receptor)
Procedure: (§2) To determine the affinity to the B2-bradykinin receptor, CFMQ was compared to a diverse set of receptors and reference agents in an in vitro assay using cells from rat heart, urinary bladder, cerebral cortex, as well as human recombinant cells (CHO and HEK 293) and other cell lines. Each assay included a ligand at a specific concentration (concentration ranging from 0.007-10 nM), in addition to a non-specific ligand (concentration ranging from […]) for incubation periods ranging from 15 minutes to 6 hours at 4°-37° C. The specific binding to the receptors was defined as the difference between the total binding and the nonspecific binding, determined in the presence of an excess of unlabeled CFMQ. The concentration causing a half-maximal inhibition of control specific binding (IC50 values) and inhibition constants (Ki) were determined, and each reference compound was within the accepted limits of the historic average (±0.5 log units).

[6] = biological target: T3, V1a (h) (Homo sapiens, UniProt P37288); experiment: Off-target receptor binding: V1a
T3 construct: expressed in transfected cells; host or cells: CHO or HEK 293 (not assigned per receptor)
Procedure: as §2

[7] = biological target: T4, NK3 (h) (Homo sapiens, UniProt P29371); experiment: Off-target receptor binding: NK3
T4 construct: expressed in transfected cells; host or cells: CHO or HEK 293 (not assigned per receptor)
T4 sequence (P29371 1-465): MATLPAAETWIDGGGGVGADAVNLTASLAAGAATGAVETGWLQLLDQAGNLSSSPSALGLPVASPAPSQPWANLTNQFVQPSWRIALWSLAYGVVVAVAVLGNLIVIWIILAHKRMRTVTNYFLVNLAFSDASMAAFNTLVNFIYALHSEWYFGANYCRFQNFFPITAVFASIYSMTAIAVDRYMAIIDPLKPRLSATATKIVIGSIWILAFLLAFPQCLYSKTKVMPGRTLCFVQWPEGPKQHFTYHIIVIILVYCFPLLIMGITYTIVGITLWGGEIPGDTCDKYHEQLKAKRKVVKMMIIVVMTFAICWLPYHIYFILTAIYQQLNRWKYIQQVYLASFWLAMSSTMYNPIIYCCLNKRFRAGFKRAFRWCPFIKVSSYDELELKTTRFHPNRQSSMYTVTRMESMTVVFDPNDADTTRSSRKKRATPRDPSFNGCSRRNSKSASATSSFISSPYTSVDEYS
Procedure: as §2

[8] = In vitro microsomal stability, human; assay type: in vitro ADME; details: Mix
Procedure: as §1

[9] = test system: BK-induced human umbilical vein contractions; experiment: cells; details: Homo sapiens, 0.5 h; 30 minute incubation, BK-induced contractions; read-out: EC50, umbilical vein assay
Procedure: The inhibition effect of CFMQ on bradykinin induced […] was examined in an ex vivo functional assay of human umbilical vein contraction, which is considered a gold standard for bradykinin activity measurements. […] Firazyr®). Following a 30 minute incubation, BK-induced vein contractions were initiated in a cumulative manner (final concentration of 10 μM), followed by maximal calibration contraction induction by 10 μM serotonin. The tension increase for each dose response was calculated in relation to the (maximal) response towards serotonin, graphed as a dose-response curve and used to calculate an effective concentration at 50% (EC50) value (FIG. 6)

[10] = In vitro microsomal stability, rat; assay type: in vitro ADME; details: Rat (Wistar)
Procedure: as §1

[11] = biological target: T5, BZD (peripheral) (Rattus norvegicus, UniProt P16257); experiment: Off-target receptor binding: BZD (peripheral)
T5 construct: from tissue
Procedure: as §2

T2 sequence (P35372 whole entry): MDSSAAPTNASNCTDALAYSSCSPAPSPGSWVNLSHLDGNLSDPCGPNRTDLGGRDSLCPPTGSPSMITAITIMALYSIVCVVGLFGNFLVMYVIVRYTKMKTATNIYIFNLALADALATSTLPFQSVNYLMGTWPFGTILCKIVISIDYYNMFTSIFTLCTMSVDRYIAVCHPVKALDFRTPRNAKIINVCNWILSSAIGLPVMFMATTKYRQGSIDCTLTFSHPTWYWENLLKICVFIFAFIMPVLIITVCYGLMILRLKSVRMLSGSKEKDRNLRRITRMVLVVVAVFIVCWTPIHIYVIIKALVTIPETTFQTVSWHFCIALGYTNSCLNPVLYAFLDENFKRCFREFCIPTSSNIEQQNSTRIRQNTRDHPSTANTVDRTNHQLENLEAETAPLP
T3 sequence (P37288 whole entry): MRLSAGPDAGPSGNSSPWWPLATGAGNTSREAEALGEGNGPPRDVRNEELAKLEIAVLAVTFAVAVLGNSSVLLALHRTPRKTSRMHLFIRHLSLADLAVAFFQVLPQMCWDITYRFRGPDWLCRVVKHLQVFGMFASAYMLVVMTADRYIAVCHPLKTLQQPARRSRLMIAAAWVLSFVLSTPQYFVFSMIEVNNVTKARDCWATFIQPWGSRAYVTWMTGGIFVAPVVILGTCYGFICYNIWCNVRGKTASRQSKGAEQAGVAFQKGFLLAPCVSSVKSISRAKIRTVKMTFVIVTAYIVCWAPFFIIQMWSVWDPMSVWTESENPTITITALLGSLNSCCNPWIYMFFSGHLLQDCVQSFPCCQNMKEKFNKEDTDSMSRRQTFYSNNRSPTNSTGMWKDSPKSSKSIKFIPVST

Cc1cc(Cl)c(COc2cccc3c(-n4cc(F)cn4)cc(C)nc23)c(Cn2cccc(C#N)c2=O)n1 [CFMQ, 1-((4-Chloro-3-(((4-(4-fluoro-1H-pyrazol-1-yl)-2-methylquinolin-8-yl)oxy)methyl)-6-methylpyridin-2-yl)methyl)-2-oxo-1,2-dihydropyridine-3-carbonitrile]
% Remaining [30 minutes] ([1]; 30 minutes): 66% | % Remaining [60 minutes] ([1]; 60 minutes): 45% | time plasma levels stay above the predicted efficacious levels ([2]; bioavailability 25%): greater than 5 hours | time plasma levels stay above the predicted efficacious levels ([2]; bioavailability 50%): > 10 h | time plasma levels stay above the predicted efficacious levels ([2]; bioavailability 75%): > 12 h | IC50 [3]: 3.3 nM | efficacy compared with 0.4 mg/kg SC Firazyr ([4]; oral 3.0 mg/kg): nearly as effective | inhibition of EB accumulation in the bladder ([4]; oral 10 mg/kg): ~100% | inhibition of EB accumulation in the bladder ([4]; oral 30 mg/kg): ~100% | IC50 [5]: 6700 nM | Ki [5]: 2700 nM | nH [5]: 1.0 | inhibition at 10 µM ([5]; CFMQ at 10 μM): 54% | IC50 [6]: 1500 nM | Ki [6]: 9400 nM | nH [6]: 1.3 | inhibition at 10 µM ([6]; CFMQ at 10 μM): 51% | IC50 [7]: 1100 nM | Ki [7]: 2700 nM | nH [7]: 1.1 | inhibition at 10 µM ([7]; CFMQ at 10 μM): 53% | % Remaining [30 minutes] ([8]; 30 minutes): 70-91% | % Remaining [60 minutes] ([8]; 60 minutes): 50-85% | EC50 [9]: 7.3 nM | % Remaining [30 minutes] ([10]; Female): 76% | % Remaining [60 minutes] ([10]; Female): 60% | % Remaining [30 minutes] ([10]; Male): 3% | % Remaining [60 minutes] ([10]; Male): 0% | IC50 [11]: 1400 nM | Ki [11]: 1200 nM | nH [11]: 1.7 | inhibition at 10 µM ([11]; CFMQ at 10 μM): 93%
